Key:
Assay in all cases: cells
Details in all cases: Homo sapiens
[1] = test system: COLO-829; type: functional, cell-based
Description: SANGER: Inhibition of human COLO-829 cell growth in a cell viability assay.

[2] = test system: DJM-1; type: functional, cell-based;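 further: growth inhibition of human DJM-1 cells, read out by a cell viability assay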
Description: SANGER: Inhibition of human DJM-1 cell growth in a cell viability assay.

[3] = test system: DK-MG; type: functional, cell-based;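 further: growth inhibition of DK-MG cells, read out with a cell viability assay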
Description: SANGER: Inhibition of human DK-MG cell growth in a cell viability assay.

[4] = test system: ES8; type: functional, cell-based;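 further: growth inhibition of human ES8 cells, read out with a cell viability assay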
Description: SANGER: Inhibition of human ES8 cell growth in a cell viability assay.

[5] = test system: ESS-1; type: functional, cell-based;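 further: growth inhibition of human ESS-1 cells, read out by a cell viability assay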
Description: SANGER: Inhibition of human ESS-1 cell growth in a cell viability assay.

[6] = test system: EW-18; type: functional, cell-based;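 further: growth inhibition of EW-18 cells, read out by a cell viability assay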
Description: SANGER: Inhibition of human EW-18 cell growth in a cell viability assay.

[7] = test system: EW-22; type: functional, cell-based;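 further: growth inhibition of the EW-22 cell line, measured with a cell viability readout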
Description: SANGER: Inhibition of human EW-22 cell growth in a cell viability assay.

[8] = test system: EOL1; type: functional, cell-based;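 further: growth inhibition of EoL-1 cells, read out by a cell viability assay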
Description: SANGER: Inhibition of human EoL-1-cell cell growth in a cell viability assay.

[9] = test system: GCIY; type: functional, cell-based;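 further: growth inhibition of the human GCIY cell line, read out by a cell viability assay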
Description: SANGER: Inhibition of human GCIY cell growth in a cell viability assay.

[10] = test system: GI-ME-N; type: functional, cell-based;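 further: growth inhibition of human GI-ME-N cells, read out with a cell viability assay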
Description: SANGER: Inhibition of human GI-ME-N cell growth in a cell viability assay.

[11] = test system: HAL-01; type: functional, cell-based;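 further: growth inhibition of human HAL-01 cells, read out with a cell viability assay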
Description: SANGER: Inhibition of human HAL-01 cell growth in a cell viability assay.

[12] = test system: HCC1187; type: functional, cell-based;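 further: growth inhibition of HCC1187 cells, read out with a cell viability assay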
Description: SANGER: Inhibition of human HCC1187 cell growth in a cell viability assay.

[13] = test system: HCE-4; type: functional, cell-based;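 further: cell viability assay measuring inhibition of growth in the human HCE-4 cell line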
Description: SANGER: Inhibition of human HCE-4 cell growth in a cell viability assay.

[14] = test system: HCE-T; type: functional, cell-based;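 further: cell viability assay read-out, reporting inhibition of HCE-T cell growth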
Description: SANGER: Inhibition of human HCE-T cell growth in a cell viability assay.

[15] = test system: HCT-116; type: functional, cell-based
Description: SANGER: Inhibition of human HCT-116 cell growth in a cell viability assay.

[16] = test system: HH; type: functional, cell-based
Description: SANGER: Inhibition of human HH cell growth in a cell viability assay.

[17] = test system: HOP-62; type: functional, cell-based;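 further: cell growth inhibition determined with a viability assay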
Description: SANGER: Inhibition of human HOP-62 cell growth in a cell viability assay.

[18] = test system: IST-SL1; type: functional, cell-based;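 further: growth inhibition of human IST-SL1 cells, read out with a cell viability assay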
Description: SANGER: Inhibition of human IST-SL1 cell growth in a cell viability assay.

[19] = test system: JVM-2; type: functional, cell-based;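 further: growth inhibition of JVM-2 cells determined by a cell viability assay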
Description: SANGER: Inhibition of human JVM-2 cell growth in a cell viability assay.

[20] = test system: K5; type: functional, cell-based
Description: SANGER: Inhibition of human K5 cell growth in a cell viability assay.

[21] = test system: LAN-6; type: functional, cell-based;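 further: growth inhibition of LAN-6 cells, determined with a cell viability assay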
Description: SANGER: Inhibition of human LAN-6 cell growth in a cell viability assay.

[22] = test system: LB2518-MEL; type: functional, cell-based;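 further: growth inhibition of human LB2518-MEL cells, measured with a cell viability assay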
Description: SANGER: Inhibition of human LB2518-MEL cell growth in a cell viability assay.

[23] = test system: LS-1034; type: functional, cell-based
Description: SANGER: Inhibition of human LS-1034 cell growth in a cell viability assay.

[24] = test system: LS-123; type: functional, cell-based
Description: SANGER: Inhibition of human LS-123 cell growth in a cell viability assay.

[25] = test system: LS-411N; type: functional, cell-based
[26] = test system: Lu-65; type: functional, cell-based;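 further: growth inhibition of Lu-65 cancer cells, read out by a cell viability assay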
Description: SANGER: Inhibition of human LU-65 cell growth in a cell viability assay.

[27] = test system: MDA-MB-175-VII; type: functional, cell-based
[28] = test system: MFH-ino; type: functional, cell-based;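 further: growth inhibition of human MFH-ino cells, read out by a cell viability assay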
Description: SANGER: Inhibition of human MFH-ino cell growth in a cell viability assay.

[29] = test system: MPP-89; type: functional, cell-based;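 further: growth inhibition of human MPP-89 cells, read out with a cell viability assay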
Description: SANGER: Inhibition of human MPP-89 cell growth in a cell viability assay.

[30] = test system: NB10; type: functional, cell-based;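 further: growth inhibition of NB10 cells, read out by a cell viability assay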
Description: SANGER: Inhibition of human NB10 cell growth in a cell viability assay.

[31] = test system: NB6; type: functional, cell-based;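 further: growth inhibition of NB6 cells, read out by a cell viability assay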
Description: SANGER: Inhibition of human NB6 cell growth in a cell viability assay.

[32] = test system: NCI-H1581; type: functional, cell-based;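 further: cell growth inhibition read out by a viability assay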
Description: SANGER: Inhibition of human NCI-H1581 cell growth in a cell viability assay.

[33] = test system: NCI-H209; type: functional, cell-based;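 further: growth inhibition of human NCI-H209 cells, measured by a cell viability assay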
Description: SANGER: Inhibition of human NCI-H209 cell growth in a cell viability assay.

[34] = test system: NCI-H526; type: functional, cell-based;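 further: growth inhibition of the human NCI-H526 cell line, measured by a cell viability assay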
Description: SANGER: Inhibition of human NCI-H526 cell growth in a cell viability assay.

[35] = test system: NCI-H69; type: functional, cell-based;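 further: growth inhibition of the cell line, read out with a cell viability assay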
Description: SANGER: Inhibition of human NCI-H69 cell growth in a cell viability assay.

[36] = test system: NCI-H720; type: functional, cell-based;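 further: growth inhibition of human NCI-H720 cells determined by a cell viability assay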
Description: SANGER: Inhibition of human NCI-H720 cell growth in a cell viability assay.

[37] = test system: NCI-H747; type: functional, cell-based;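 further: growth inhibition of human NCI-H747 cells, read out by a cell viability assay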
Description: SANGER: Inhibition of human NCI-H747 cell growth in a cell viability assay.

[38] = test system: NKM-1; type: functional, cell-based;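 further: growth inhibition of NKM-1 cells, read out with a cell viability assay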
Description: SANGER: Inhibition of human NKM-1 cell growth in a cell viability assay.

[39] = test system: NMC-G1; type: functional, cell-based;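 further: growth inhibition of the NMC-G1 cell line, measured with a cell viability read-out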
Description: SANGER: Inhibition of human NMC-G1 cell growth in a cell viability assay.

[40] = test system: NOS-1; type: functional, cell-based;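 further: growth inhibition of the human NOS-1 cell line, read out with a cell viability assay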
Description: SANGER: Inhibition of human NOS-1 cell growth in a cell viability assay.

[41] = test system: OVCAR-4; type: functional, cell-based;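 further: growth inhibition of human OVCAR-4 cells, measured with a cell viability assay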
Description: SANGER: Inhibition of human OVCAR-4 cell growth in a cell viability assay.

[42] = test system: OVCAR-5; type: functional, cell-based;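 further: growth inhibition of human OVCAR-5 cells, read out with a cell viability assay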
Description: SANGER: Inhibition of human OVCAR-5 cell growth in a cell viability assay.

[43] = test system: P30-OHK; type: functional, cell-based;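 further: growth inhibition of the P30-OHK cell line, read out with a cell viability assay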
Description: SANGER: Inhibition of human P30-OHK cell growth in a cell viability assay.

[44] = test system: PSN1; type: functional, cell-based;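 further: suppression of growth of human PSN1 cells, read out by a cell viability assay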
Description: SANGER: Inhibition of human PSN1 cell growth in a cell viability assay.

[45] = test system: QIMR-WIL; type: functional, cell-based;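 further: growth inhibition of QIMR-WIL cells, read out with a cell viability assay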
Description: SANGER: Inhibition of human QIMR-WIL cell growth in a cell viability assay.

[46] = test system: RPMI-8866; type: functional, cell-based
Description: SANGER: Inhibition of human RPMI-8866 cell growth in a cell viability assay.

[47] = test system: RS4-11; type: functional, cell-based;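 further: growth inhibition of RS4-11 cells, read out by a cell viability assay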
Description: SANGER: Inhibition of human RS4-11 cell growth in a cell viability assay.

[48] = test system: SBC-5; type: functional, cell-based;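 further: cell viability assay read-out, IC50 is the concentration that inhibits growth of the cells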
Description: SANGER: Inhibition of human SBC-5 cell growth in a cell viability assay.

[49] = test system: SCC-15; type: functional, cell-based;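 further: growth inhibition of SCC-15 cells, read out with a cell viability assay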
Description: SANGER: Inhibition of human SCC-15 cell growth in a cell viability assay.

[50] = test system: SF-268; type: functional, cell-based;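 further: growth inhibition of SF-268 cells determined with a cell viability assay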
Description: SANGER: Inhibition of human SF268 cell growth in a cell viability assay.

[51] = test system: SHP77; type: functional, cell-based, SHP-77;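 further: growth inhibition of human SHP-77 cells measured by a cell viability assay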
Description: SANGER: Inhibition of human SHP-77 cell growth in a cell viability assay.

[52] = test system: SJRH30; type: functional, cell-based;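 further: growth inhibition of human SJRH30 cells, read out with a cell viability assay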
Description: SANGER: Inhibition of human SJRH30 cell growth in a cell viability assay.

[53] = test system: SJSA-1; type: functional, cell-based;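 further: growth inhibition of human SJSA-1 cells, read out through a cell viability measurement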
Description: SANGER: Inhibition of human SJSA-1 cell growth in a cell viability assay.

[54] = test system: SK-MEL-2; type: functional, cell-based;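 further: growth inhibition of human SK-MEL-2 cells measured with a cell viability assay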
Description: SANGER: Inhibition of human SK-MEL-2 cell growth in a cell viability assay.

[55] = test system: SNU-C2B; type: functional, cell-based;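 further: cell viability readout used to measure compound-driven suppression of SNU-C2B cell proliferation, IC50 marking half-maximal growth inhibition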
Description: SANGER: Inhibition of human SNU-C2B cell growth in a cell viability assay.

[56] = test system: SW872; type: functional, cell-based
Description: SANGER: Inhibition of human SW872 cell growth in a cell viability assay.

[57] = test system: TE-1; type: functional, cell-based
Description: SANGER: Inhibition of human TE-1 cell growth in a cell viability assay.

[58] = test system: A4-Fuk; type: functional, cell-based
Description: SANGER: Inhibition of human A4-Fuk cell growth in a cell viability assay.

[59] = test system: ACN; type: functional, cell-based
Description: SANGER: Inhibition of human ACN cell growth in a cell viability assay.

[60] = test system: AM-38; type: functional, cell-based
Description: SANGER: Inhibition of human AM-38 cell growth in a cell viability assay.

[61] = test system: BHY; type: functional, cell-based
Description: SANGER: Inhibition of human BHY cell growth in a cell viability assay.

[62] = test system: U2OS; type: functional, cell-based, U-2-OS
Description: SANGER: Inhibition of human U-2-OS cell growth in a cell viability assay.

[63] = test system: UACC-257; type: functional, cell-based
Description: SANGER: Inhibition of human UACC-257 cell growth in a cell viability assay.

[64] = test system: CAS-1; type: functional, cell-based
Description: SANGER: Inhibition of human CAS-1 cell growth in a cell viability assay.

[65] = test system: CHP-212; type: functional, cell-based
Description: SANGER: Inhibition of human CHP-212 cell growth in a cell viability assay.

[66] = test system: COLO-320-HSR; type: functional, cell-based
Description: SANGER: Inhibition of human COLO-320-HSR cell growth in a cell viability assay.

CC[C@]1(O)C[C@@H]2CN(CCc3c([nH]c4ccccc34)[C@@](C(=O)OC)(c3cc4c(cc3OC)N(C)[C@H]3[C@@](O)(C(=O)OC)[C@H](OC(C)=O)[C@]5(CC)C=CCN6CC[C@]43[C@@H]65)C2)C1 [VINBLASTINE]
IC50 [1]: 19.2 nM | IC50 [2]: > 100 nM | IC50 [3]: 6.65 nM | IC50 [4]: 3.24 nM | IC50 [5]: 4.88 nM | IC50 [6]: > 100 nM | IC50 [7]: 29.3 nM | IC50 [8]: 1.26 nM | IC50 [9]: 49.7 nM | IC50 [10]: 6.08 nM | IC50 [11]: > 100 nM | IC50 [12]: 2.75 nM | IC50 [13]: 18.1 nM | IC50 [14]: 20 nM | IC50 [15]: 3.63 nM | IC50 [16]: 6.37 nM | IC50 [17]: > 100 nM | IC50 [18]: 1.19 nM | IC50 [19]: > 100 nM | IC50 [20]: 4.68 nM | IC50 [21]: 47.7 nM | IC50 [22]: > 100 nM | IC50 [23]: > 100 nM | IC50 [24]: 53.3 nM | IC50 [25]: 66.4 nM | IC50 [26]: > 100 nM | IC50 [27]: > 100 nM | IC50 [28]: > 100 nM | IC50 [29]: 30.3 nM | IC50 [30]: 7.32 nM | IC50 [31]: 80 nM | IC50 [32]: 4.24 nM | IC50 [33]: 13.1 nM | IC50 [34]: 5.14 nM | IC50 [35]: > 100 nM | IC50 [36]: 6.88 nM | IC50 [37]: 81.2 nM | IC50 [38]: 1.27 nM | IC50 [39]: 8.48 nM | IC50 [40]: 40.9 nM | IC50 [41]: 27.9 nM | IC50 [42]: 13.6 nM | IC50 [43]: 11.1 nM | IC50 [44]: 1.25 nM | IC50 [45]: 8.95 nM | IC50 [46]: 1.97 nM | IC50 [47]: 4.51 nM | IC50 [48]: 7.47 nM | IC50 [49]: 23.1 nM | IC50 [50]: 16.2 nM | IC50 [51]: > 100 nM | IC50 [52]: 59.4 nM | IC50 [53]: 12.1 nM | IC50 [54]: 53.3 nM | IC50 [55]: 24.7 nM | IC50 [56]: > 100 nM | IC50 [57]: 10.9 nM | IC50 [58]: 1.87 nM | IC50 [59]: 40.3 nM | IC50 [60]: 36.9 nM | IC50 [61]: 15.3 nM | IC50 [62]: 25.7 nM | IC50 [63]: 90.5 nM | IC50 [64]: 93.1 nM | IC50 [65]: 3.55 nM | IC50 [66]: > 100 nM

Reference: ChEMBL document CHEMBL1201861, “Genomics of Drug Sensitity in Cancer screening data, Wellcome Trust Sanger Institute”
